Measured values taken from patent publication US5352810A, “Phosphatidylinositol analogues, inhibitors of phosphatidylinositol specific phospholipase C” (Mediolanum Farmaceutici S.p.A., priority 1991, dated 1994).

Tests used:
[1] = tested on: K562 erythroleukaemia cell line; assay: In vitro antitumoral activity / toxicity assay (propidium iodide, flow cytofluorometry); assay type: cell-based; conditions: FIG. 1
Method: The compound described in example 1.3 and named 309 bis was tested to evaluate the "in vitro" antitumoral activity according to the following method:
Cell cultures. K562 erythroleukaemia cell line was obtained from ATCC (Rockville, Md., USA). Cell culture media and plastic were from Flow (U.K.). Cells were grown in RPMI 1640 medium supplemented with 10% (v/v) heat-inactivated foetal calf serum, 2mM L-glutamine, 2.0 g.1^-1 bicarbonate, and 10 mM Hepes (4-(2-hydroxyethyl)-1-piperazine ethanesulphonic acid) in humidified atmosphere with 5% (v/v) CO2 at 37° C. Coltures were performed without the addition of any antibiotics, and were routinely checked for the presence of Mycoplasma infection.
Toxicity assay. Cells were washed and suspended to the final concentration of 10^6 ml^-1 in a medium containing 5% (v/v) FCS. The chemical compounds under evaluation were diluted from a 2 mM stock solution containing 5% (v/v) FCS and 0.2% (v/v) dimethylsulphoxide (DMSO, FCS and medium were added in sequence to facilitate solubility); when necessary, solutions were treated with short sonical pulses. 0.2% DMSO was added to controls. […] The 560-580 nm fluorescence of the death cells, excited at 490-495 nm, was monitored on a FACS-analizer flow cytofluorometer (Becton Dickinson, Calif., USA) using a Consort 30 programme. […]

[2] = biological target: phosphatidylinositol-specific phospholipase C (PLC); assay: Inhibition of phosphatidylinositol-specific phospholipase C enzymatic activity (hydrolysis of [3H]phosphatidylinositol); assay type: biochemical; conditions: soluble fraction of human platelets; 20 min preincubation, 15 min reaction, pH 6.5, 37° C.; read-out: IC50 (Inhibitor concentration inhibiting 50% of the enzyme)
Method: The following experiments were carried out with the compounds prepared in the Examples 1-5 above mentioned in order to evaluate their ability to inhibit the enzymatic activity of phosphatidylinositol-specific phospholipase C (PLC).
The test were carried out according to the following operations.
1. Preparation of phosphatidylinositol-specific phospholipase C enzyme from human platelets.
As the starting material human plasma enriched with human platelets was used.
Platelets were precipitated from plasma by centrifugation at 0°-4° C. for 30 minutes at 2,500×g. The platelets precipitate was washed twice by using a buffer "A" Hepes pH 7 (137 mM NaCl, 20 mM Hepes; 1.0 mM EGTA; 5 mM glucose) and successively recovered by using buffer "B" Hepes (10 mM Hepes, pH 7).
The platelets were sonicated and centrifuged at 3,200×g for 20 minutes at 0-4° C. The surnatant consisting of platelets homogenate, was separated and ultracentrifuged at 105,000×g for 1 hour, thereby obtaining two fractions: the soluble one and the particulate one, both containing PLC.
2. Preparation of phosphatidylinositol substrate.
The substrate marked for PLC, L-3-phosphatidyl [2-^3 H] inositol, cod. […]
The product was purified by HPLC and had the following characteristics: specific activity 20 Ci/mMol (22.6 mCi/mg), radioactivity concentration 50μCi/ml ([…]=1.85 ×10^6 Bq); the hydroxyl groups 1 and 2 of glycerol resulted esterified with stearic acid and arachidonic acid in 90% of the product.
1 ml of a chloroform solution containing L-phosphatidylinositol (10 mg/ml sigma cod P 25/7 containing mainly stearic acid and arachidonic acid) was taken. […] Marked phosphatidylinositol was added to 9 ml of said solution in such an amount that in 300μl of the solution (2.0× 10^-4 M) thus obtained, 130,078±1316 Dpm were recorded. […]
In order to determine the inhibitory activity of the compounds of the present invention, said compounds and the enzyme were preincubated for 20 minutes. […] A suitable aliquot of the aqueous phase was utilized for the scintillatot readings.

## CCCCCCCCCCCCCCCCCCSP(=O)(O)O[C@@H]1[C@H](O)[C@H](O)[C@@H](O)[C@H](O)[C@H]1O (relative stereo) [Example 1.3, 1-O-(OCTADECYLPHOSPHOTHIOLYL)-MYO-INOSITOL]
[1]; concentration 10^-3 -3×10^-3 M
  % toxicity (percentage of killed cells), maximum: ~100%
[1]; concentration 10^-5 M
  antitumoral activity on erythroleukaemic cells: shows antitumoral activity

## CCCCCCCCCCCCCCSP(=O)(O)O[C@@H]1[C@H](O)[C@H](O)[C@@H](O)[C@H](O)[C@H]1O (relative stereo) [Example 3.3, 1-O-(TETRADECYLPHOSPHOTHIOLYL)-MYO-INOSITOL]
[2]
  IC50: ~100 µM

## CCCCCCCCCCCCSP(=O)(O)O[C@@H]1[C@H](O)[C@H](O)[C@@H](O)[C@H](O)[C@H]1O (relative stereo) [Example 4.3, 1-O-(DODECYLPHOSPHOTHIOLYL)-MYO-INOSITOL]
[2]
  IC50: > 100 µM

## CCCCCCCCSP(=O)(O)O[C@@H]1[C@H](O)[C@H](O)[C@@H](O)[C@H](O)[C@H]1O (relative stereo) [Example 5.3, 1-O-(OCTYLPHOSPHOTHIOLYL)-MYO-INOSITOL]
[2]
  IC50: > 100 µM
